Measured values from ChEMBL document CHEMBL5137024, “Discovery of novel coumarin-indole derivatives as tubulin polymerization inhibitors with potent anti-gastric cancer activities” (Eur J Med Chem, 2022).
Calls of active or inactive are those of the source. No cut-off for these calls is given here.

What was measured:
Mus musculus [1] = experiment: Downregulation of p38 phosphorylation in tumor tissue of BALB/c nude mouse xenografted with human MGC-803 cells at 15 to 30 mg/kg, ip administered once daily for 21 days by Western blotting analysis; format: functional, organism-based; conditions: dose 15-30 mg/kg, time 21.0 day
[2] = target: c-Jun N-terminal kinase, JNK (Homo sapiens) (UniProt P45983+P53779+P45984); experiment: Inhibition of JNK signalling pathway in human MGC-803 cells assessed as reduction in JNK phosphorylation at 5 to 15 nM incubated for 48 hrs; format: cell-based; conditions: dose 5-15 nM
HGC-27 [3] = experiment: Downregulation of ATF4 expression in human HGC-27 cells incubated for 48 hrs; format: functional, cell-based; conditions: dose 10-30 nM, DDE = dose-dependent effect
SGC-7901 = experiment: Antiproliferative activity against human SGC-7901 cells assessed as reduction in cell viability incubated for 48 hrs by MTT assay; format: functional, cell-based; conditions: SGC-7901, 48 h
HGC-27 [4] = experiment: Inhibition of ERK signalling pathway in human HGC-27 cells assessed as reduction in downstream substrate p90RSK phosphorylation at 10 to 30 nM incubated for 48 hrs; format: cell-based; conditions: dose 10-30 nM
[5] = Induction of mitochondria mediated intrinsic apoptosis in human HGC-27 cells assessed as late apoptotic cells at 30 nM measured after 48 hrs by flow cytometry analysis (reference value: 93.6%); format: functional
HGC-27 [6] = experiment: Antiproliferative activity against human HGC-27 cells assessed as reduction in cell viability incubated for 12 to 48 hrs by MTT assay; format: functional, cell-based; conditions: dose 15-30 nM, time 12-48 hrs, DDE = dose-dependent effect
[7] = Induction of mitochondria mediated intrinsic apoptosis in human MGC-803 cells assessed as late apoptotic cells at 15 nM measured after 48 hrs by flow cytometry analysis (Rvb= 98.2%); format: functional
[8] = Induction of mitochondria mediated intrinsic apoptosis in human MGC-803 cells assessed as late apoptotic cells at 5 nM measured after 48 hrs by flow cytometry analysis (Rvb= […]); format: functional
[9] = Induction of mitochondria mediated intrinsic apoptosis in human HGC-27 cells assessed as early apoptotic cells at 10 nM measured after 48 hrs by flow cytometry analysis (Rvb= 6.4%); format: functional
MGC-803 [10] = experiment: Inhibition of p38 signalling pathway in human MGC-803 cells assessed as reduction in downstream substrate MAPKAPK2 phosphorylation at 5 to 15 nM incubated for 48 hrs; format: cell-based; conditions: dose 5-15 nM
Mus musculus [11] = experiment: Upregulation of phosphorylated Histone H3 expression in tumor tissue of BALB/c nude mouse xenografted with human MGC-803 cells at 15 to 30 mg/kg, ip administered once daily for 21 days by Western blotting analysis; format: functional, organism-based; conditions: dose 15-30 mg/kg, time 21.0 day
MGC-803 [12] = experiment: Downregulation of MMP-9 expression in human MGC-803 cells incubated for 48 hrs; format: functional, cell-based; conditions: dose 5-15 nM, DDE = dose-dependent effect
MGC-803 [13] = experiment: Induction of apoptosis in human MGC-803 cells assessed as cell rounding at 5 to 15 nM incubated for 48 hrs by bright field imaging analysis; format: functional, cell-based; conditions: dose 5-15 nM
HGC-27 [14] = experiment: Downregulation of FoxO3a expression in human HGC-27 cells incubated for 48 hrs; format: functional, cell-based; conditions: dose 10-30 nM, DDE = dose-dependent effect
MGC-803 [15] = experiment: Downregulation of phosphorylated Elk-1 expression in human MGC-803 cells incubated for 48 hrs; format: functional, cell-based; conditions: dose 5-15 nM, DDE = dose-dependent effect
MGC-803 [16] = experiment: Downregulation of ATF4 expression in human MGC-803 cells incubated for 48 hrs; format: functional, cell-based; conditions: dose 5-15 nM, DDE = dose-dependent effect
MGC-803 [17] = experiment: Induction of apoptosis in human MGC-803 cells assessed as increase in total apoptotic cells at 15 nM incubated for 48 hrs by annexin V FITC and propidium iodide staining based flow cytometry analysis (reference value: 3.4%); format: functional
MCF7 = experiment: Antiproliferative activity against human MCF7 cells assessed as reduction in cell viability incubated for 48 hrs by MTT assay; format: functional, cell-based; conditions: MCF7, 48 h
MGC-803 [18] = experiment: Antitumor activity against human MGC-803 cells xenografted BALB/c nude mouse assessed as inhibition of tumor volume at 15 to 30 mg/kg, ip administered once daily for 21 days and measured every 2 days; format: functional, organism-based; conditions: dose 15-30 mg/kg, time 21.0 day
HGC-27 [19] = experiment: Antiproliferative activity against human HGC-27 cells assessed as reduction in cell viability incubated for 48 hrs by MTT assay; format: functional, cell-based; conditions: HGC-27, 48 h
HGC-27 [20] = experiment: Induction of apoptosis in human HGC-27 cells assessed as decrease in cIAP-1 level; format: functional, cell-based; conditions: dose 10-30 nM, DDE = dose-dependent effect
MGC-803 [21] = experiment: Induction of apoptosis in human MGC-803 cells assessed as decrease in Mcl-1 level; format: functional, cell-based; conditions: dose 5-15 nM, DDE = dose-dependent effect
Tubulin (Homo sapiens) = Tubulin (Homo sapiens) (UniProt P68371+Q9H4B7+P0DPH7+P68366+Q13509+Q71U36+P04350+Q3ZCM7+P07437+P68363+Q9BQE3+Q6PEY2+Q13885+Q9BVA1+Q9BUF5); experiment: Disruption of microtubule network in human HGC-27 cells assessed as irregular form of filamentous microtubule structures at 10 to 30 nM measured after 48 hrs by DAPI staining based fluorescence microscopic analysis; format: cell-based; conditions: dose 10-30 nM
[22] = Induction of mitochondria mediated intrinsic apoptosis in human MGC-803 cells assessed as early apoptotic cells at 15 nM measured after 48 hrs by flow cytometry analysis (Rvb= 1.6%); format: functional
MGC-803 [23] = experiment: Inhibition of p38 signalling pathway in human MGC-803 cells assessed as reduction in downstream substrate HSP-27 phosphorylation at 5 to 15 nM incubated for 48 hrs; format: cell-based; conditions: dose 5-15 nM
HGC-27 [24] = experiment: Inhibition of p38 signalling pathway in human HGC-27 cells assessed as reduction in downstream substrate HSP-27 phosphorylation at 10 to 30 nM incubated for 48 hrs; format: cell-based; conditions: dose 10-30 nM
MGC-803 [25] = experiment: Inhibition of p38 signalling pathway in human MGC-803 cells assessed as reduction in p38 phosphorylation at 5 to 15 nM incubated for 48 hrs; format: cell-based; conditions: dose 5-15 nM
CWR22R = experiment: Antiproliferative activity against human 22Rv1 cells assessed as reduction in cell viability incubated for 48 hrs by MTT assay; format: functional, cell-based; conditions: 22Rv1, 48 h
HGC-27 [26] = experiment: Antiproliferative activity against human HGC-27 cells assessed as reduction in cell viability at 15 to 30 nM by MTT assay; format: functional, cell-based; conditions: dose 15-30 nM, time 12-48 hrs, TDE = time-dependent effect
[27] = Toxicity in BALB/c nude mouse xenografted with human MGC-803 cells assessed as pathological changes in liver at 15 to 30 mg/kg, ip administered once daily for 21 days by Hematoxyin-eosin staining based analysis; format: organism-based; conditions: in vivo, 504 h, dose 15-30 mg/kg, time 21 day
MGC-803 [28] = experiment: Downregulation of vimentin expression in human MGC-803 cells incubated for 48 hrs; format: functional, cell-based; conditions: dose 5-15 nM, DDE = dose-dependent effect
HGC-27 [29] = experiment: Induction of apoptosis in human HGC-27 cells assessed as decrease in Mcl-1 level; format: functional, cell-based; conditions: dose 10-30 nM, DDE = dose-dependent effect
MGC-803 [30] = experiment: Antitumor activity against human MGC-803 cells xenografted BALB/c nude mouse assessed as tumor growth inhibition at 30 mg/kg, ip administered once daily for 21 days; format: functional; conditions: MGC-803, 504 h, time 21 day, read-out: TGI
MGC-803 [31] = experiment: Antiinvasive activity against human MGC-803 cells assessed as reduction in number of cells in membrane incubated for 48 hrs by trans well assay; format: functional, cell-based; conditions: dose 5-15 nM, DDE = dose-dependent effect

Q: For `CN(c1ccc2c(ccn2C)c1)c1cc(=O)oc2ccccc12`, which Activity (Mus musculus [1]) is on record?
A: Active

Q: What about the inhibition [2] of the same molecule?
A: Active

Q: What about the Activity (HGC-27 [3]) of the same molecule?
A: Dde

Q: And the IC50 (SGC-7901)?
A: 52.3 nM

Q: What about the inhibition (HGC-27 [4]) of the same molecule?
A: Active

Q: And the Activity [5]?
A: 74.4%

Q: What about the Activity (HGC-27 [6]) of the same molecule?
A: Dde

Q: What about the Activity [7] of the same molecule?
A: 75.2%

Q: And the Activity [8]?
A: 98.1%

Q: What about the Activity [9] of the same molecule?
A: 8.3%

Q: What about the inhibition (MGC-803 [10]) of the same molecule?
A: Active

Q: What about the Activity (Mus musculus [11]) of the same molecule?
A: Active

Q: What about the Activity (MGC-803 [12]) of the same molecule?
A: Dde

Q: And the Activity (MGC-803 [13])?
A: Active

Q: What about the Activity (HGC-27 [14]) of the same molecule?
A: Dde

Q: And the Activity (MGC-803 [15])?
A: Dde

Q: And the Activity (MGC-803 [16])?
A: Dde

Q: And the Activity (MGC-803 [17])?
A: 40.2%

Q: And the IC50 (MCF7)?
A: 435 nM

Q: And the Activity (MGC-803 [18])?
A: Active

Q: What about the IC50 (HGC-27 [19]) of the same molecule?
A: 23.8 nM

Q: And the Activity (HGC-27 [20])?
A: Dde

Q: What about the Activity (MGC-803 [21]) of the same molecule?
A: Dde

Q: What about the Activity (Tubulin (Homo sapiens)) of the same molecule?
A: Active

Q: What about the Activity [22] of the same molecule?
A: 23.6%

Q: And the inhibition (MGC-803 [23])?
A: Active

Q: What about the inhibition (HGC-27 [24]) of the same molecule?
A: Active

Q: And the inhibition (MGC-803 [25])?
A: Active

Q: What about the IC50 (CWR22R) of the same molecule?
A: 558 nM

Q: What about the Activity (HGC-27 [26]) of the same molecule?
A: Tde

Q: What about the Activity [27] of the same molecule?
A: Non-Toxic

Q: What about the Activity (MGC-803 [28]) of the same molecule?
A: Dde

Q: And the Activity (HGC-27 [29])?
A: Dde

Q: What about the inhibition in vivo at 30 mg/kg (MGC-803 [30]) of the same molecule?
A: 80%

Q: What about the Activity (MGC-803 [31]) of the same molecule?
A: Dde
